From patent US20100093764A1, “AMINES AND SULFOXIDES OF THIENO[2,3-d]PYRIMIDINE AND THEIR USE AS ADENOSINE A2a RECEPTOR ANTAGONISTS” (priority 2008, published 2010)
Counter-ions that a name gives are not always drawn.

Experiments:
[1] = target: T1, human adenosine A2a receptor (Homo sapiens, UniProt P29274); test: Adenosine A2a Receptor Functional Assay (A2AGAL2); type: cell-based; settings: CHO-K1 cells overexpressing human A2a receptor, cAMP inducible beta-galactosidase reporter, 15 nM NECA agonist challenge
T1 construct: expressed in transfected cells; host or cells: CHO-K1 cells with a cAMP inducible beta-galactosidase reporter gene
Experimental: Adenosine A2a Receptor Functional Assay (A2AGAL2)
(§1) To initiate the functional assay, cryopreserved CHO—K1 cells overexpressing the human adenosine A2a receptor and containing a cAMP inducible beta-galactosidase reporter gene were thawed, centrifuged, DMSO containing media removed, and then seeded with fresh culture media into clear 384-well tissue culture treated plates (BD #353961) at a concentration of 10K cells/well. Prior to assay, these plates were cultured for two days at 37° C., 5% CO2, 90% Rh. On the day of the functional assay, culture media was removed and replaced with 45 uL assay medium (Hams/F-12 Modified (Mediatech #10-080CV) supplemented w/0.1% BSA). Test compounds were diluted and 11 point curves created at a 1000× concentration in 100% DMSO. Immediately after addition of assay media to the cell plates, 50 nL of the appropriate test compound antagonist or agonist control curves were added to cell plates using a Cartesian Hummingbird. Compound curves were allowed to incubate at room temperature on cell plates for approximately 15 minutes before addition of a 15 nM NECA (Sigma E2387) agonist challenge (5 uL volume). A control curve of NECA, a DMSO/Media control, and a single dose of Forskolin (Sigma F3917) were also included on each plate. After additions, cell plates were allowed to incubate at 37° C., 5% CO2, 90% Rh for 5.5-6 hours. After incubation, media was removed, and cell plates were washed 1× 50 uL with DPBS w/o Ca & Mg (Mediatech 21-031-CV). Into dry wells, 20 uL of 1× Reporter Lysis Buffer (Promega E3971 (diluted in dH2O from 5× stock)) was added to each well and plates frozen at −20° C. overnight. For β-galactosidase enzyme calorimetric assay, plates were thawed out at room temperature and 20 μL 2× assay buffer (Promega) was added to each well. Color was allowed to develop at 37° C., 5% CO2, 90% Rh for 1-1.5 h or until reasonable signal appeared. The calorimetric reaction was stopped with the addition of 60 μL/well 1M sodium carbonate. Plates were counted at 405 nm on a SpectraMax Microplate Reader (Molecular Devices). Data was analyzed in Microsoft Excel and IC/EC50 curves were fit using a standardized macro.

[2] = target: T2, human adenosine A1 receptor (Homo sapiens, UniProt P30542); test: Adenosine A1 Receptor Functional Assay (A1GAL2); type: cell-based; settings: CHO-K1 cells overexpressing human A1 receptor, cAMP inducible beta-galactosidase reporter, 4 nM r-PIA/1 uM Forskolin agonist challenge
T2 construct: expressed in transfected cells; host or cells: CHO-K1 cells with a cAMP inducible beta-galactosidase reporter gene
T2 sequence (P30542 1-326): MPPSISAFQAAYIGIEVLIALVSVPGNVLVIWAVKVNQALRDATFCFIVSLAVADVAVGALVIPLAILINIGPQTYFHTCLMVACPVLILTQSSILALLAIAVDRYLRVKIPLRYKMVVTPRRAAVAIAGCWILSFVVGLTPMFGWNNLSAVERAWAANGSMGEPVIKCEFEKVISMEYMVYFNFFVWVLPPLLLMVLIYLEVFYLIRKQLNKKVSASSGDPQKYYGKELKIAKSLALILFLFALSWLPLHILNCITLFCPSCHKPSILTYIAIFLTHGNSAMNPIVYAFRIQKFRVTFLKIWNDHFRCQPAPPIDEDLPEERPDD
Experimental: Adenosine A1 Receptor Functional Assay (A1GAL2)
as §1, with “adenosine A1” for “adenosine A2a”, “a 4” for “a 15”, “nM r-PIA” for “nM NECA”, “(Sigma P4532)/1 uM Forskolin (Sigma F3917)” for “(Sigma E2387)”, “of r-PIA in 1 uM Forskolin,” for “of NECA,”, “Forskolin” for “Forskolin (Sigma F3917)”

T1 sequence (P29274 whole entry): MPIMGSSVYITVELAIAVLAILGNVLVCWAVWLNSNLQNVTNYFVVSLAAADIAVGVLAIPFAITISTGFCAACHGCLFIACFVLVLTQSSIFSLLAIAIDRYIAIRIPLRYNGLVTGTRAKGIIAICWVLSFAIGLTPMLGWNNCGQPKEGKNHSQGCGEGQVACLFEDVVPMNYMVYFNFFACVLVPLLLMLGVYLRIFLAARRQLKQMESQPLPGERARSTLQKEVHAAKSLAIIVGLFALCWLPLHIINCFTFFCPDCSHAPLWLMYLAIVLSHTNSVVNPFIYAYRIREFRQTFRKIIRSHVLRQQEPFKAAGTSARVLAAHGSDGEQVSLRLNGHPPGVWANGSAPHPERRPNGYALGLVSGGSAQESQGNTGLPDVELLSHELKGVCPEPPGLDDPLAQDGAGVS

| SMILES | Ki [1] [nM] | Ki [2] [nM] |
| --- | --- | --- |
| N#Cc1cccc(-c2nc(N)c3cc(Nc4ccccc4)sc3n2)c1 [Example 1, (4-Amino-6-phenylamino-thieno[2,3-d]pyrimidin-2-yl)-benzonitrile] | 89.4 | 1150 |
| COc1ccccc1Nc1cc2c(N)nc(-c3cccc(C#N)c3)nc2s1 [Example 2, 3-[4-Amino-6-(2-methoxy-phenylamino)-thieno[2,3-d]pyrimidin-2-yl]-benzonitrile] | 11.4 | 269 |
| COc1ccccc1N(C)c1cc2c(N)nc(-c3cccc(C#N)c3)nc2s1 [Example 3, 3-{4-Amino-6-[(2-methoxy-phenyl)-methyl-amino]-thieno[2,3-d]pyrimidin-2-yl}-benzonitrile] | 103 | 569 |
| N#Cc1cccc(-c2nc(N)c3cc(Nc4ccccn4)sc3n2)c1 [Example 4, 3-[4-Amino-6-(pyridin-2-ylamino)-thieno[2,3-d]pyrimidin-2-yl]-benzonitrile] | 84.4 | 765 |
| CN(c1ccccc1)c1cc2c(N)nc(-c3cccc(C#N)c3)nc2s1 [Example 5, 3-[4-Amino-6-(methyl-phenyl-amino)-thieno[2,3-d]pyrimidin-2-yl]-benzonitrile] | 127 | 2330 |
| COc1cccc(Nc2cc3c(N)nc(-c4cccc(C#N)c4)nc3s2)c1 [Example 6, 3-[4-Amino-6-(3-methoxy-phenylamino)-thieno[2,3-d]pyrimidin-2-yl]-benzonitrile-hydrochloride] | 261 | 2370 |
| N#Cc1cccc(-c2nc(N)c3cc(Nc4ccccc4Cl)sc3n2)c1 [Example 7, 3-[4-Amino-6-(2-chloro-phenylamino)-thieno[2,3-d]pyrimidin-2-yl]-benzonitrile-hydrochloride] | 230 | 2270 |
| CN(c1cc2c(N)nc(-c3cccc(C#N)c3)nc2s1)c1ccccc1Cl [Example 8, 3-{4-Amino-6-[(2-chloro-phenyl)-methyl-amino]-thieno[2,3-d]pyrimidin-2-yl}-benzonitrile] | 316 | 2770 |
| COc1cccc(N(C)c2cc3c(N)nc(-c4cccc(C#N)c4)nc3s2)c1 [Example 9, 3-{4-Amino-6-[(3-methoxy-phenyl)-methyl-amino]-thieno[2,3-d]pyrimidin-2-yl}-benzonitrile-hydrochloride] | 273 | 2540 |
| N#Cc1cccc(-c2nc(N)c3cc(Nc4ccccc4F)sc3n2)c1 [Example 10, 3-[4-Amino-6-(2-fluoro-phenylamino)-thieno[2,3-d]pyrimidin-2-yl]-benzonitrile] | 131 | 2600 |
| CN(c1cccc(F)c1)c1cc2c(N)nc(-c3cccc(C#N)c3)nc2s1 [Example 11, 3-{4-Amino-6-[(3-fluoro-phenyl)-methyl-amino]-thieno[2,3-d]pyrimidin-2-yl}-benzonitrile] | 398 | 5230 |
| N#Cc1cccc(-c2nc(N)c3cc(S(=O)(=O)c4ccccc4)sc3n2)c1 [Example 12, 3-(4-Amino-6-benzenesulfonyl-thieno[2,3-d]pyrimidin-2-yl)-benzonitrile] | 15.7 | 358 |
